“And” between values parts separate entries of the source, which are not always exact repeats. Equal entries are not always repeated. “Also recorded” adds a separate entry of the source.
Key:
[1] = tested on: Human Pancreatic Adenocarcinoma Cells (HPAC); assay: HPAC cell viability / anti-cell proliferative assay (Calbiochem Rapid Cell Proliferation Kit, OD 450 nm); type: cell-based; details: 48 hours; for Optical Densities in 96_Well Plate, Average: average of 5 wells; for Optical Densities in 96_Well Plate, single well: one of 5 replicate wells
Description: Human Pancreatic Adenocarcinoma Cells (HPAC) cells were obtained from ATCC and propagated in Dulbecco's modified Eagle's medium and Ham's F12 medium (DME-F12) (1:1) containing 2.5 mM glutamine, […], 5 ug/mL transferrin, 1 ng/mL EGF (epidermal growth factor), plus 5% FBS (fetal bovine serum). Cell cultures were incubated at 37° C., 5% CO2 in a 100% humidity atmosphere. The cells were routinely brought to confluence in T-flasks, rinsed with phosphate buffered saline(PBS), and treated with trypsin for 5 min at room temp. The trypsinized cells were rinsed from the plate with 10 mL medium and counted. Viability at subculturing was generally ≧95%.
Approximately 10,000 cells in 100 uL of medium were placed in each well of a 96-well plate and incubated over night. Peptides having the following sequences were used: Arg-15-Cys (RSSCAGAALSPLGAC); Pro-15-Val (PNEEAGAALSPLPEV); Ala-8-Leu (AGALSPL); C-ANP 4-23 ([…]) and, VDL ([…]). The peptides were dissolved in PBS and sterile filtered. The peptides were diluted into the cell culture medium to the following final concentrations: 1, 0.3, 0.1, 0.03, and 0.01 uM. Each peptide was tested in 5 replicate wells. The cultures were incubated for an additional 48 hours at 37° C.
The viability of the cells was determined using a Calbiochem Rapid Cell Proliferation Kit (catalog number QIA127). Ten uL of Calbiochem color reagent was added to each well and incubated for an additional 1.5 hours at 37° C. Optical densities were read at 450 nm using a Molecular Devices ThermoMax microplate reader. The plate template is shown in Table I (unlabeled wells contained cells but no peptide and were used as blanks). Results are presented in Table I, and are graphically illustrated in FIGS. 1 and 2.

cancer cells [2] = assay: Anti-cancer activity of peptides with the conserved motif (cell proliferative assay); type: cell-based; details: statement in the description
Description: This example describes activity of peptides having a conserved motif and conserved amino acids predicted to be functional in the motif. (Table III). This example also describes additional exemplary peptide sequences having a conserved motif predicted to have activity (Table IV). Notations “Res 1, Res 2” etc., herein refer by single letter abbreviation the amino acid in the exemplary peptide 8-mer. “Activity” can be determined by a cell proliferative assay, such as an assay described herein or known to one of skill in the art. Of course, peptides exemplified in Table IV can include the conserved motif peptide as part of a larger protein. The SEQ ID NO is the same as the peptide number. Each of these exemplary peptides can be analyzed in vitro, ex vivo, and in vivo for anti-cell proliferative activity using an assay, such as a cell based in vitro assay described in Examples 1 or 4.

[3] = tested on: Human RPE cells (ARPE-19); assay: Transepithelial electrical resistance (TEER) of RPE cell layer treated with VEGF; type: cell-based; details: ARPE-19 cell layer
cancer cells [4] = details: comparison between natriuretic peptides, Vesely 2008; cited from earlier work
NPRC = biological target: T1, NPRC (Homo sapiens, UniProt P17342); details: comparison between natriuretic peptides, Vesely 2008; cited from earlier work
T1 sequence (P17342 27-541): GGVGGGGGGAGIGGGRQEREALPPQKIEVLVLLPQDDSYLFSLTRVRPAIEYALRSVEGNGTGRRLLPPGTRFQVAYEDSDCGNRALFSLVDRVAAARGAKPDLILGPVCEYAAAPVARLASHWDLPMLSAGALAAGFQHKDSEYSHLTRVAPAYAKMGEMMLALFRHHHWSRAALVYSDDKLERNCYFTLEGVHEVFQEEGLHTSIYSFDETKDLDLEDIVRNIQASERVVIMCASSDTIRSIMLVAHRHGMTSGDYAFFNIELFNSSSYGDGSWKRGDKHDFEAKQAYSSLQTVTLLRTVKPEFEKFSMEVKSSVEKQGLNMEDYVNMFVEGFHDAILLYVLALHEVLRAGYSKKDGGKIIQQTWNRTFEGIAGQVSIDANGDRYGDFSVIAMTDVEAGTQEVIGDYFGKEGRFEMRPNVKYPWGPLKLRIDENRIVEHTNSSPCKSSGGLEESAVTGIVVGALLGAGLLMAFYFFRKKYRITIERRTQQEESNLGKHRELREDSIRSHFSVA

NPRA = biological target: T2, NPRA (Homo sapiens, UniProt P16066); details: comparison between natriuretic peptides, Vesely 2008; cited from earlier work
T2 sequence (P16066 33-1061): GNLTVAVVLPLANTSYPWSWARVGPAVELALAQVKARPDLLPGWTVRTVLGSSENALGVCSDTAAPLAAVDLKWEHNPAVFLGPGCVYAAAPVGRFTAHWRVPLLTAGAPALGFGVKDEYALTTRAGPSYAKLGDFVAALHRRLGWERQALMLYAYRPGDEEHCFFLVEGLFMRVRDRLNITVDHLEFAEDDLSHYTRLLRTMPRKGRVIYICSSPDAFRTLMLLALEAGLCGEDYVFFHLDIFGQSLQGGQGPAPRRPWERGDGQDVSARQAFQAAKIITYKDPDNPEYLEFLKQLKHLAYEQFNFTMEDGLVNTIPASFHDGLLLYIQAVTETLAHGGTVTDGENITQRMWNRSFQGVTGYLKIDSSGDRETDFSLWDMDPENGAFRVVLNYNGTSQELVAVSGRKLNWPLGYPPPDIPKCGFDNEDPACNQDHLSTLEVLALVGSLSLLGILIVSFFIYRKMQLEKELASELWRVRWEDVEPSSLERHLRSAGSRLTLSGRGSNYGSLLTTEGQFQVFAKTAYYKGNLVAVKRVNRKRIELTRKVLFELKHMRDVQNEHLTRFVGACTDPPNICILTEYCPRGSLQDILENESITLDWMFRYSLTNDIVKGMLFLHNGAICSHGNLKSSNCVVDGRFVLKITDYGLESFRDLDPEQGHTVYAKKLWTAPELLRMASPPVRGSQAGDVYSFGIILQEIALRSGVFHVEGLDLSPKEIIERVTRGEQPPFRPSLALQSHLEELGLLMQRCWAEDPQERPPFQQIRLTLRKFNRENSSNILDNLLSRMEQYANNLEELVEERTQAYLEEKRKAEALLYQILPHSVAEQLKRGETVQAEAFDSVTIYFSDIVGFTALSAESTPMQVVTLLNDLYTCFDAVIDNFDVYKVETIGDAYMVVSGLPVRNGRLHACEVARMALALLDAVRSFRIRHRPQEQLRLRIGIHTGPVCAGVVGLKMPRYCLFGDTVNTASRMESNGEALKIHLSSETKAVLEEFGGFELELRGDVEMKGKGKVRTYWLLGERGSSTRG

Substance	Optical Densities in 96_Well Plate, Average ([1]; peptide 0.01 μM)	Optical Densities in 96_Well Plate, single well ([1]; peptide 0.01 μM)	Optical Densities in 96_Well Plate, Average ([1]; peptide 0.03 μM)	Optical Densities in 96_Well Plate, single well ([1]; peptide 0.03 μM)	Optical Densities in 96_Well Plate, Average ([1]; peptide 0.1 μM)	Optical Densities in 96_Well Plate, single well ([1]; peptide 0.1 μM)	Optical Densities in 96_Well Plate, Average ([1]; peptide 0.3 μM)	Optical Densities in 96_Well Plate, single well ([1]; peptide 0.3 μM)	Optical Densities in 96_Well Plate, Average ([1]; peptide 1.0 μM)	Optical Densities in 96_Well Plate, single well ([1]; peptide 1.0 μM)	Activity of peptides sharing the conserved motif (cancer cells [2])	Effect on VEGF-induced decrease in trans-epithelial electrical resistance (TEER) ([3]; concurrent treatment with VEGF 10 ng/ml, ANP luM)	Relative potency of NPs (cancer cells [4])	Relative binding affinity at NPRC (NPRC)	Relative binding affinity at NPRA (NPRA)	Effect on transepithelial electrical resistance (TEER) ([3]; VEGF 10 ng/ml)
AGALSPL [Ala-8-Leu, 8-mer conserved motif peptide]	0.937	0.744 and 0.878 and 1.000 and 0.892 and 1.169	0.976	0.892 and 0.937 and 0.989 and 0.921 and 1.139	0.991	0.832 and 1.006 and 1.031 and 0.910 and 1.174	1.002	0.784 and 0.802 and 0.998 and 1.357 and 1.070	0.985	0.732 and 1.216 and 0.954 and 0.834 and 1.189						
ANP: atrial natriuretic peptide; Table III sequence SLRRSSCFGGRMDRIGAQSGLGCNSFRY [reference compound]	0.908	0.981 and 0.815 and 0.822 and 0.965 and 0.955	0.935	0.948 and 0.882 and 0.911 and 0.951 and 0.982	0.838	0.884 and 0.889 and 0.907 and 0.862 and 0.650	0.974	1.001 and 0.889 and 0.837 and 0.934 and 1.209	0.914	1.018 and 0.819 and 0.954 and 0.829 and 0.951	have activity	attenuated the effect of VEGF; also recorded: This decrease is attenuated by ANP	greater potency observed for ANP than CNP	higher binding affinities at NPRA and NPRC	higher binding affinities at NPRA and NPRC	
BNP: brain natriuretic peptide; motif in Table III FGKRMDRI											have activity					
CNP: C-type natriuretic peptide; motif in Table III FGLKLDRI											have activity; also recorded: less active than ANP, LANP, KP or VDL		greater potency of CNP than BNP	higher binding affinity than BNP specifically at NPRC		
EVVPPQVLSEPNEEAGAALSPLPEVPPWTGEVSPAQR [KT-220 (VDL), vessel dilator VDL]											have activity					
KP: ANP-related peptide; motif in Table III LKSKLRAL (SSDRSALLKSKLRALLTAPR; Kaliuretic peptide; UniProt P01160 104-123, looked up)											have activity					
LANP: ANP-related peptide; motif in Table III FKNLLDHL (NPMYNAVSNADLMDFKNLLDHLEEKMPLED; Long-acting natriuretic peptide; UniProt P01160 26-55, looked up)											have activity					
PNEEAGAALSPLPEV [Pro-15-Val]	0.916	0.907 and 0.905 and 0.633 and 1.209 and 0.928	0.894	0.892 and 0.765 and 0.693 and 1.151 and 0.970	0.918	0.680 and 0.895 and 0.893 and 1.156 and 0.964	0.916	0.875 and 0.817 and 0.855 and 1.024 and 1.010	0.948	0.856 and 0.752 and 0.802 and 1.083 and 1.248						
RSSCAGAALSPLGAC [Arg-15-Cys]	0.934	0.974 and 0.920 and 0.863 and 0.840 and 1.075	0.982	1.093 and 0.894 and 0.789 and 0.955 and 1.178	0.950	1.016 and 0.917 and 0.801 and 0.990 and 1.025	0.897	0.988 and 0.957 and 0.668 and 0.913 and 0.959	0.962	1.155 and 1.005 and 0.787 and 0.944 and 0.919						
RSSCFGGRIDRIGAC [C-ANP 4-23, the ANP analog, reference compound]	0.938	0.877 and 0.971 and 0.953 and 0.932 and 0.958	0.932	0.905 and 0.882 and 0.981 and 0.948 and 0.943	0.942	0.758 and 1.027 and 0.983 and 0.960 and 0.982	0.942	0.840 and 0.928 and 1.035 and 0.975 and 0.932	0.925	0.865 and 0.925 and 0.900 and 0.955 and 0.981	have activity					
VEGF																lowered resistance

Reference: patent US20150045301A1, “METHODS AND USES OF ANP (ATRIAL NATRIURETIC PEPTIDE), BNP (BRAIN NATRIURETIC PEPTIDE) AND CNP (C-TYPE NATRIURETIC PEPTIDE)-RELATED PEPTIDES AND DERIVATIVES THEREOF FOR TREATMENT OF RETINAL DISORDERS AND DISEASES” (KALOS Therapeutics, Inc., priority 2011, published 2015)
